The text below walks through data of patent US7629317B2, “Control of growth and repair of gastro-intestinal tissues by gastrokines and inhibitors” (The University of Chicago, priority 2001, dated 2009).

One assay deals with IEC-6 cells. In words: [3H]thymidine incorporation into DNA in IEC-6 cells. It counts as cell-based, rat. From the text:
Growth stimulation by peptide 77-97 was additive with that of EGF. […] HAE cells were used to test whether AMP-18 can exert an effect on epithelial cells that exist in the local environment of its synthesis. These cells, provided by Dr. Duane Smoot, Howard University College of Medicine, are not completely immortalized and therefore have limited passage number. Growth stimulation of HAE cells by peptide 77-97 was apparently additive with that of EGF (FIG. 16, left panel). Not only does the AMP peptide stimulate growth but it also acted as a motogen, resulting in more rapid migration (restitution) of cells into scrape wounds made in confluent cultures. […] Near-maximal growth stimulation was detected at an AMP peptide concentration of 0.5 μg/ml (0.23 μM) (FIG. 15, center panel), a much lower value than the concentration needed for trefoil peptides (1 μg/μl) (˜150 μM) or the α-defensin, cryptdin 3 ([…]) (˜140 μM) to exert their effects in culture. […]
Non-transformed monkey kidney epithelial cell line BSC-1 and other epithelial cell lines were used to assess effects on growth. […] AMP-18 preparations were added to the culture medium and 4 days later the cell monolayer was rinsed, detached with trypsin, and the cells were counted using a hemocytometer. […]

Another assay deals with hsp25, hsp72. In words: Expression of heat shock proteins by IEC-18 cells after thermal injury (immunoblot). The following applies: 42° C. 23 min, peptide 8 μg/ml; 12 and 24 hr; listed as AMP peptide. It counts as cell-based, rat. The method, then: FIG. 42. Effect of AMP peptide on expression of heat shock proteins by intestinal epithelial cells after thermal injury. IEC-18 cell monolayers were subjected to non-lethal heat shock injury by exposure to 42° C. for 23 min. Immediately thereafter some cultures received AMP peptide (8 μg/ml) (P on figure); control cultures (C) received vehicle. Whole cell protein was analyzed by immunoblotting. Increased expression of hsp25 and induced hsp72 is seen 12 hr after heat shock in control cultures, but constitutive expression of hsc73 is not altered. Expression of hsp25 and 72 was increased after treatment with AMP peptide compared to vehicle at 12 and 24 hr.
In an effort to identify molecules that could mediate the cytoprotective effect of AMP peptide, it was asked if exposing intestinal epithelial cells to the peptide could modify induction of heat shock proteins (hsps) (Musch et al., 1996). Diploid non-transformed rat intestinal epithelial IEC-18 cells were used to study induction of hsps in response to thermal injury rather than C2 cells—which constitutively express hsp27 and hsp72 at high levels, possibly because they are transformed. (Hsp27 is found in human C2 cells, and hsp25 in rat IEC-18 cells. Hsp72 is often referred to as hsp70). The results depicted in FIG. 42 indicate that, as expected, hsc73 and hsp25 are constitutively expressed (0 hr), but hsp72 is not. […]

Assay [1] relates to tyrosine phosphorylation, p38 MAP kinase, hsp25, JNK1/2, ERK1/2. Kind of assay: Phosphorylation of signaling proteins in IEC-18 cells (immunoblot). In kind it is cell-based, rat. How it is done: To find signaling molecules by which AMP peptide mediates its biological effects, it was asked if the peptide stimulates tyrosine phosphorylation in GI epithelial cells. IEC-18 cells were treated with AMP peptide for different periods of time, the cells were then lysed, the proteins extracted and separated on SDS-polyacrylamide gels, blotted, and the blot was probed with 4G10 anti-phosphotyrosine monoclonal antibody.
First the effect of AMP peptide on phosphorylation of p38 MAPK in IEC-18 cells was examined. After exposure to the peptide (8 μg/ml) for up to 2 hr, the cells were lysed, the proteins were extracted, and Western blot analysis was performed using anti-phospho-specific p38 antibody. Then the membrane was stripped and reprobed with anti-p38 antibody. […] Next, to see if AMP peptide stimulated phosphorylation of hsp25, a specific anti-phospho-hsp25 antibody (Affinity BioReagents) was used to probe a blot prepared using AMP peptide-treated IEC-18 cells as above.

The test system of assay [2] is mice with Pseudomonas aeruginosa-induced gut-derived sepsis. In words: Pseudomonas aeruginosa-induced gut-derived sepsis in mice. It counts as in vivo, female Balb/c mice. Particulars: 15 mg/kg i.p for 4 days, s.c. for 1 day; all vehicle animals dead; listed as AMP peptide. How it is done: To determine if AMP peptide could play a cytoprotective role in GDS, a study was carried out in C2 cell monolayers that were exposed to the PA-I lectin. […] Next the effect of AMP peptide was studied in the mouse model of P. aeruginosa-induced-GDS (Laughlin et al., 2000) using female Balb/c mice subjected to 30% hepatectomy, injection of a solution of living P. aeruginosa into the cecum, and food deprivation postoperatively. All 8 of the mice survived surgery.

The subject of another assay is Staphylococcus aureus. In words: Growth of other bacteria and fungi. In kind it is cell-based.
For assay [3], the system named is Staphylococcus epidermidis. Kind of assay: Growth of other bacteria and fungi. It counts as cell-based.

Entries after “also recorded” stand apart in the source; their conditions may differ.

As for “LDALVKEKKLQGKGPGGPPPK [97–117, peptide 77-97 of the mature protein, same as 97-117 of the human precursor]”, in the assay with IEC-6 cells (P<0.001), the “stimulation of [3H]thymidine incorporation into DNA” value came to 68%. Moreover, the “[3H]thymidine incorporation into DNA” value with IEC-6 cells (with peptide, without 16,668±616) is listed as 28,036±882. Further, the “expression of hsp25 and hsp72 compared to vehicle” value with hsp25, hsp72 is “greater; also recorded: increased”. Further, the “phospho (P)-hsp25” value in assay [1] (30 min) was “stimulated the appearance”. Further, in assay [1] (JNKs after 10 min, ERKs at 20 min, listed as AMP peptide), the “activation (phosphorylation) of JNK1/2 and ERK1/2” value is “rapidly activated”. Further, the “total hsp25” value in assay [1] (after 1 hr) was “increase”. The “total p38 MAPK” value in assay [1] (peptide 8 μg/ml) was “no change”. In assay [1] (peptide 8 μg/ml, 30 min, listed as AMP peptide), the “p38 MAP kinase phosphorylation” value was “striking increase; also recorded: increased”. Besides, the protein tyrosine phosphorylation entry in assay [1] (peptide 8 μg/ml, two min) is “tyrosine phosphorylation of several proteins”. Further, the “survival one day after P. aeruginosa injection into the cecum” value in assay [2] was “alive and well”. Also, the “growth of Staphylococcus aureus” value in the assay with Staphylococcus aureus is on record as “did not alter the growth”. Also, in assay [3], the “growth of Staphylococcus epidermidis” value is on record as “did not alter the growth”.
